Experiments:
[1] = tested on: glypican-1-Fc binding to human full-length Slit-2; experiment: ELISA: inhibition of glypican-1-Fc binding to Slit-2
Method: Human embryonic kidney 293 cells were transfected with a glypican-1-Fc fusion protein construct using Lipofectamine 2000 and grown in serum-free DMEM containing 1% ITS+. To separate the glycanated form of the proteoglycan (which was used for all studies) from unglycanated core protein, the conditioned medium was applied to a 0.9×8 cm column of DEAE-Sephacel equilibrated with 150 mM NaCl, 50 mM Tris-HCl, pH 8.0. After elution with 50 mM Tris-HCl (pH 8.0) containing 0.6 M NaCl, the glycanated glypican-1-Fc was bound to protein A-Sepharose beads, eluted with 0.1 M glycine, pH 3.0, and immediately neutralized with 1 M Tris, pH 8.0, for storage at −80° C.
293 cells were transfected with the pSecTagB vector (Invitrogen, Carlsbad, Calif.) containing cDNA for the His-tagged uncleavable variant of human full-length Slit-2, in which the nine amino acids encompassing the proteolytic processing site were deleted, producing an uncleavable full-length protein. 1 M NaCl extracts of the 293 cells were incubated with nickel-agarose beads (Qiagen) for 2 hours at 4° C., and after washing, bound protein was eluted with 10 mM Hepes (pH 7.5) containing 250 mM imidazole and 1 M NaCl. Protein concentrations were determined by the Bradford assay. Purity of the recombinant Slit protein was confirmed by SDS-PAGE followed by silver staining.
96-well plates (Corning Costar #9018) were coated overnight with the human full-length Slit-2 in imadazole/NaCl elution buffer at a saturating concentration of 1-5 μg/well, after dilution in PBS. Unbound protein was removed by washing with TBST (10 mM Tris-HCl, pH 7.4, 150 mM NaCl, 0.1% Tween 20), the wells were blocked with 10% FBS in TBST for 2 hours, and then incubated for 18 hours at room temperature with glypican-1-Fc (1 μg/well) in 5 mM PBS (pH 7.2), or in PBS containing varying concentrations of potential inhibitory compositions. Bound glypican was detected using a biotinylated anti-human Fc antibody (Jackson Immunoresearch; 1:250,000 in TBST, for 2 hours), followed by incubation for 20 minutes with HRP-conjugated streptavidin (1:20,000 in TBST). The colorimetric reaction product from the o-phenylenediamine substrate was measured at 450 nm using a Dynatech MRX ELISA plate reader. Nonspecific binding was calculated as the binding of glypican-1-Fc to wells coated with BSA (2 mg/ml solution). Percent inhibition was calculated in relation to parallel assay wells in which no inhibitor was added to the glypican-1 solution. From serial dilutions of a known concentration of glypican-1-Fc directly coated on the wells and the corresponding immunoreactivity absorbance, a standard curve could also be created and used to quantitate the absolute amount of glypican-1-Fc bound.
The glypican-1-Fc and human Slit-2 fusion proteins are prepared as set forth in Example One.

[2] = tested on: whole blood; details: cited from earlier work
[3] = tested on: vascular endothelial cells; details: cited from earlier work

| SMILES | % inhibition of glypican-1 binding to Slit ([1]; 50 μM) | % inhibition of glypican-1 binding to Slit ([1]; 1 μM) [%] | % inhibition of glypican-1 binding to Slit ([1]; 5 μM) [%] | anticoagulant activity [2] | antithrombotic activity [3] | inhibition of glypican binding to Slit proteins (in words) ([1]; ELISA, function of oligosaccharide size, FIG. 1) |
| --- | --- | --- | --- | --- | --- | --- |
| CO[C@H]1O[C@H](COS(=O)(=O)O)[C@@H](O[C@@H]2O[C@@H](C(=O)O)[C@@H](O[C@H]3O[C@H](COS(=O)(=O)O)[C@@H](O[C@@H]4O[C@H](C(=O)O)[C@@H](O[C@H]5O[C@H](COS(=O)(=O)O)[C@@H](O)[C@H](O)[C@H]5NS(=O)(=O)O)[C@H](O)[C@H]4O)[C@H](OS(=O)(=O)O)[C@H]3NS(=O)(=O)O)[C@H](O)[C@H]2OS(=O)(=O)O)[C@H](O)[C@H]1NS(=O)(=O)O [Arixtra] | no effect |  |  |  |  |  |
| O=S(=O)(O)c1cc2c(O)c(c1)Cc1cc(S(=O)(=O)O)cc(c1O)Cc1cc(S(=O)(=O)O)cc(c1O)Cc1cc(S(=O)(=O)O)cc(c1O)Cc1cc(S(=O)(=O)O)cc(c1O)Cc1cc(S(=O)(=O)O)cc(c1O)Cc1cc(S(=O)(=O)O)cc(c1O)Cc1cc(S(=O)(=O)O)cc(c1O)C2 [GL-522-Y-1] | 67% | 58 | 61 | no significant anticoagulant activity | heparin-like antithrombotic activity |  |
| Cc1ccc(C(=O)Nc2ccc(S(=O)(=O)O)c3cc(S(=O)(=O)O)cc(S(=O)(=O)O)c23)cc1NC(=O)c1cccc(NC(=O)Nc2cccc(C(=O)Nc3cc(C(=O)Nc4ccc(S(=O)(=O)O)c5cc(S(=O)(=O)O)cc(S(=O)(=O)O)c45)ccc3C)c2)c1 [suramin] |  |  |  |  |  | inhibits glypican-Slit interactions to the same extent as large heparin oligosaccharides |

— patent US20050043273A1, “Compositions and methods for inhibiting slit protein and glypican interactions” (priority 2003, published 2005)
